Reference: patent publication US20100041679A1, “ORAL DIETING COMPOSITION COMPRISING CONJUGATED LINOLEIC ACID AND CAFFEINE” (Institut Phytoceutic, priority 2004, published 2010)

Experiment: Additional study on 24 people with excess weight, formulations given orally, two sachets/day for one month, weight loss
Type: in vivo, human
Details: oral route
Experimental: An additional study was carried out on 24 people with excess weight, to whom the formulations of the following table were administered by the oral route, in an amount of two sachets/day for one month, without changing their dietary habits.

**Q.** Which results are given for Conjugated linoleic acid?
**A.** weight loss observed, significance in words: not significant; Weight loss observed (as % by weight) (dietary habits unchanged): −1.8 (N.S.) % by weight
